Measured values published in ChEMBL document CHEMBL3507680, “University of Dundee, Gates Library screen for HepG2 cell viability”.

Assay: Human HepG2 cell viability assay in 384 well format
Assay type: toxicity, cell-based
Design: dose 125 nL, time 70.5 hour; cytotoxicity at 70.5 h: concentration not given beside the values
Conditions: HepG2 cells, read-out: Inhibition

Row | SMILES | cytotoxicity at 70.5 h [%]
1 | CN(C)C(=O)c1c[nH]nc1C1CCN(S(=O)(=O)c2ccc(Cl)cc2)CC1 | 17.9
2 | CC(=O)N1CCC(c2nccnc2CNC(=O)c2cc[nH]n2)CC1 | -4.85
3 | CN(C(=O)c1cc(F)ccc1F)[C@@H]1CC[C@@H](O)[C@@H]1O | -2.95
4 | CNC(=O)C1CCCN(C(=O)c2ccccc2-n2cc(CN)cn2)C1 (configuration not stated) | 2.43
5 | CO[C@@H]1CCC[C@@H](N(C)C(=O)c2cc(F)ccc2F)[C@H]1O | -3.32
6 | Cc1noc(C)c1CCC(=O)N[C@@H]1CCC[C@@H](Oc2cccnc2)[C@@H]1O | -3.39
7 | Cc1noc(C2(C)CCN(C(=O)C(C)C)CC2)n1 | -5.14
8 | CCC(CC)N1CCC(c2[nH]ncc2S(C)(=O)=O)C1 (configuration not stated) | -5.29
9 | CN(C)C(=O)C1(C)CN(Cc2cn(C)c3ccccc23)CCO1 (configuration not stated) | -4.04
10 | CC(C)(C)CN1CCC(c2nccnc2Nc2cnccn2)CC1 | -1.64
11 | Cc1c(CCC(=O)N2CCCC2c2ccnc(N(C)C)c2)cnn1C (configuration not stated) | -1.8
12 | Cc1cc(CN2CCc3nc(C(C)C)nc(O)c3CC2)c(C)s1 | -0.545
13 | NC(=O)c1cn[nH]c1C1CCCN1C(=O)COc1ccccc1 (configuration not stated) | -3.18
14 | CN(C)C(=O)c1c[nH]nc1C1CCN(S(=O)(=O)c2cccc(Cl)c2)CC1 | 9.14
15 | O=C(CC1CC1)N1CCC(O)(CN2CCN(c3ccccc3)CC2)C1 (configuration not stated) | 5.49
16 | Cc1nc(C)c(C(=O)N2CCCC2(C)C(=O)NC2CCCC2)s1 (configuration not stated) | -3.63
17 | Cc1ccc(-c2cc(C)nc(C3CCCN3S(C)(=O)=O)n2)cc1 (configuration not stated) | -8.04
18 | O=C(Nc1ccc(Cl)cn1)c1cncc(C2CCNCC2)n1 | -7.54
19 | Cc1ccc(-c2nnc(CNC(=O)c3cccnc3)o2)cn1 | -16.3

Row | SMILES | cytotoxicity at 70.5 h [%]
20 | Cc1cncnc1C1CCN(C(=O)CN(C)C)CC1 | -8.84
21 | Cc1cc(N(C)C)nc(N2CCn3c(C)nnc3C2)n1 | -17.7
22 | CS(=O)(=O)CCN1CCSCC1c1ccc(Cl)cc1 (configuration not stated) | -1.17
23 | CCc1cc(CNC(=O)c2cc(NC(=O)C(C)C)ccc2Cl)[nH]n1 | -9.06
24 | CC(C)OCCS(=O)(=O)N1CCN(Cc2ccco2)CC1 | -4.45
25 | CNC(=O)Cc1ccc(NC(=O)NCc2nc(C)sc2C)cc1 | 13.2
26 | CCN(C)S(=O)(=O)N1CCC(C(O)c2ccc(Cl)cc2)CC1 (configuration not stated) | -8.06
27 | Cc1cn2c(n1)C(CNCc1cnn3ccccc13)CCC2 (configuration not stated) | -5.6
28 | CCS(=O)(=O)Nc1ccc2[nH]c(C3CCC3)nc2c1 | -6.11
29 | Cc1cc(N(C)C)nc(N2CCn3c(nnc3C(C)C)C2)n1 | 13.6
30 | CC(C)Cc1cc(C(=O)N2CCC(Cc3cnn(C)c3)C2)cc(O)n1 (configuration not stated) | -11.1
31 | CN(CC(=O)N(C)C(c1cccnc1)c1ccc(F)c(F)c1)C1CC1 (configuration not stated) | 22.6
32 | COCCNC(=O)N1CCC(NC(C)C)CC1 | 5.14
33 | Cc1oc(C)c(C(=O)Nc2ccccn2)c1C | -10.7
34 | O=S(=O)(CCCn1cncn1)Cc1ccccc1Cl | -6.92
35 | CN(CCOc1ccccc1Cl)S(=O)(=O)N1CCOCC1 | -7.93
36 | CC(NC(=O)c1ccoc1)C(=O)N(C)Cc1ccsc1 (configuration not stated) | -5.45
37 | CCNC(=O)C(C)(C)NC(=O)NCc1cccc(Br)c1 | -8.53
38 | COc1cc(C#N)ccc1OCC(=O)N(C1CC1)C(C)c1ccco1 (configuration not stated) | -9.56

Row | SMILES | cytotoxicity at 70.5 h [%]
39 | CCN1CCc2cc(-c3cncn3CCNC3CCS(=O)(=O)C3)ccc21 (configuration not stated) | -5.23
40 | NC[C@H]1CC[C@H](c2c(C(N)=O)sc3ccccc32)CC1 | -3.54
41 | CC(C)(C)C(=O)NC(c1nccs1)C1CCN(CC2CCCCC2)CC1 (configuration not stated) | 33.7
42 | CNC(=O)[C@@]12CCCN(c3ncccn3)[C@@H]1CN(C)C2 | 29.8
43 | Cc1ncsc1CN1CC[C@H]2OCC[C@@]2(C(=O)NC(C)C)C1 | 33.4
44 | Cc1ccc(C(=O)N2CCn3cc(CN4CCCCC4)nc3C2)o1 | 35.2
45 | CNC(=O)[C@H]1C[C@H]2OCC[C@H]2N(Cc2ccc(C)o2)C1 | 3.85
46 | Cc1nnc(N2C[C@H](C(=O)NCC3CC3)[C@@H]3CCO[C@@H]3C2)s1 | -4
47 | CCOCC1CN(C(=O)c2cccn2C)Cc2cnn(CC3CC3)c21 (configuration not stated) | 0.525
48 | O=C(c1ncccn1)N1C[C@H]2CCC[C@@]2(COCc2ccncc2)C1 | 9.21
49 | Cn1cnc2c1C(COCC1CC1)CN(C(=O)Cc1ccsc1)C2 (configuration not stated) | -3.95
50 | CN(C)S(=O)(=O)N1C[C@@H](Oc2ccccn2)[C@H]2OCCC[C@H]21 | -7.76
51 | Cn1nc(C#N)c2c1CN(C(=O)c1cccnc1)CCC2 | 29.4
52 | Cc1ccc(N2CC3(COCCN(Cc4nccs4)C3)OCC2=O)s1 (configuration not stated) | -10.7
53 | CCOC(=O)[C@]12CCCN(Cc3nccs3)C[C@H]1CN(C(C)=O)C2 | -13.3
54 | c1ccc(Cn2cc3c(n2)C(COCC2CC2)OCC3)nc1 (configuration not stated) | 8.53
55 | CN(C)S(=O)(=O)N1CCC[C@]2(C[C@@H](Oc3ccccn3)CO2)C1 | -17.2
56 | CC(C)N1CCOCC2(CN(Cc3nccs3)CCO2)C1 (configuration not stated) | -0.368
57 | CC(C)N1CCOCC2(CN(Cc3ccccn3)CCO2)C1 (configuration not stated) | -2.31
